Molecular target: Mitogen-activated protein kinase kinase kinase 12 (Homo sapiens) (UniProt Q12852)
Assay: Inhibition of DLK (unknown origin) using myelin basic protein as substrate preincubated for 15 mins measured after 30 mins in presence of [gamma-32P]ATP by scintillation counting

Sequence of Mitogen-activated protein kinase kinase kinase 12 (Homo sapiens) (Q12852 whole entry, looked up): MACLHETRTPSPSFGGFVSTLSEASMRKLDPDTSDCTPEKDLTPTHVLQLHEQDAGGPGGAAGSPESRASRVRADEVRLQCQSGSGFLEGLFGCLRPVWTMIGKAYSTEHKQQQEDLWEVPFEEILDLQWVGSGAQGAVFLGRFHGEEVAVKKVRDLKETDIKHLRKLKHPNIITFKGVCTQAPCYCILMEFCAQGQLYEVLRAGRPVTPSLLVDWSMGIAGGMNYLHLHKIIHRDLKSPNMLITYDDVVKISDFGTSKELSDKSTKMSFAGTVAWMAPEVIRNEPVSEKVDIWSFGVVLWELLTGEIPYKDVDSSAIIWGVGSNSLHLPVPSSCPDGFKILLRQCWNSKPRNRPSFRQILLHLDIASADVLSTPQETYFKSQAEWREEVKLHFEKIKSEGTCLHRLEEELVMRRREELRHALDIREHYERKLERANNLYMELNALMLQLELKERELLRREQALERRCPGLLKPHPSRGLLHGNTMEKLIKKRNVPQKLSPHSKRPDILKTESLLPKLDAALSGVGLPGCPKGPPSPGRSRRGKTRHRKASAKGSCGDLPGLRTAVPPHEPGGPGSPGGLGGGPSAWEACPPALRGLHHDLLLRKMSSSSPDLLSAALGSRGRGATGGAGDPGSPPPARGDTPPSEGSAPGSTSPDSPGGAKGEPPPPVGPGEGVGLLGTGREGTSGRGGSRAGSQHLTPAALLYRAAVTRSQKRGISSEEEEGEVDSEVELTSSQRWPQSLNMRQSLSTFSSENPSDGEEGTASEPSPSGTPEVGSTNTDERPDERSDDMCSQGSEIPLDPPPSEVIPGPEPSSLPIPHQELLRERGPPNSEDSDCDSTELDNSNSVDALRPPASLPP

IC50: 1 nM
SMILES: CC(C)n1c2ccc(Oc3ncccn3)cc2c2c3c(c4c(c21)CCc1nn(C)cc1-4)C(=O)NC3

Reference: BindingDB's records for doi:10.1021/acs.jmedchem.8b00370 (Genentech, 2018)
